Entries after “also recorded” stand apart in the source; their conditions may differ.
Tests used:
[1] = system: HSCs; assay: Competitive repopulation with HSCs from Alda-1 treated and untreated donors; assay type: in vivo, mice; conditions: FIG. 2
Description: To measure the effects of ALDH2 activation on HSC potency, recipient mice were transplanted with purified HSCs from two donors, one of which had received Alda-1 prior to collection of HSCs for transplant, and another of the same strain which had not received Alda-1 prior to collection for transplant. The two donors were genetically the same except for a difference in the CD45 gene, which allows the blood cells from each to be distinguished from each other and the recipient.
The Alda-1 treated donor had received Alda-1 subcutaneously for 2 months prior to HSC collection. The cells from the treated and untreated donors were mixed together prior to transplant at fixed ratios of 1:3 (25%), 1:1 (50%), or 3:1 (75%). A total of 3000 HSCs were given intravenously to immunodeficient (γc^-/- Kit^W41/W41) mice after low dose irradiation. The polymorphonuclear neutrophils (PMN, aka granulocytes) in each recipient mouse were tested at 6 weeks after transplant to determine what proportion of the PMN were derived from each HSC donor.
With reference to FIG. 2, the X-axis represents percentage of total cells infused which were from Alda-1 treated donor and the Y-axis represents the actual percentage of PMN observed after HSCT to be derived from Alda-1 treated donor. The linear line represents the predicted ratio if there were no difference in the repopulating ability of the HSC cells.

[2] = Tolerability of chronic Alda-1 administration in vivo; conditions: 10 mg/kg.day continuous subcutaneous infusion, 3 months
Method: (§1) Mice (wild-type C57BL/6N were administered with Alda-1 (10 mg/kg.day) or vehicle control (50% DMSO/50% PEG-400) by continuous infusion via subcutaneous osmatic pumps for 3 months.
(§2) Vehicle control and Alda-1 treated mice were then analyzed for HSC functionality. […] With reference to FIG. 1A and FIG. 1B, error bars show standard deviation, significance computed with Student's t-test. *=p≤0.05.

[3] = system: HSC; assay: HSC expansion in mice given Alda-1 by continuous subcutaneous infusion; assay type: in vivo, mice (wild-type C57BL/6N)
Method: as §1, §2

For O=C(NCc1ccc2c(c1)OCO2)c1c(Cl)cccc1Cl [Alda-1], the “origin of PMN in recipient vs ratio of transplanted cells” value ([1]; 6 weeks after transplant, treated:untreated donor cells 1:3, 1:1 or 3:1) was “more likely to be derived from the Alda-1 treated donor than predicted”, the “potency / repopulating ability of HSC in recipient” value ([1]; donor given Alda-1 subcutaneously for 2 months, 3000 HSCs i.v. to irradiated immunodeficient mice) was “increased repopulating ability; also recorded: increased the potency of HSC in repopulating recipient” and the “tolerability of chronic administration” value [2] was “well tolerated”. The “HSC expansion (in words)” value ([3]; Alda-1 10 mg/kg.day, subcutaneous osmotic pumps, 3 months, vs vehicle control) was “significant HSC expansion”, the “increase in (LT)-HSCs” value ([3]; Alda-1 10 mg/kg.day, subcutaneous osmotic pumps, 3 months, vs vehicle control, FIG. 1A) was 4 fold and the “increase in (ST)-HSCs” value ([3]; Alda-1 10 mg/kg.day, subcutaneous osmotic pumps, 3 months, vs vehicle control, FIG. 1B) was 2 fold. For the same compound, the “long-term mouse HSC (in words)” value ([3]; FIG. 1A legend) was “increases long-term mouse HSC” and the “short-term HSC (in words)” value ([3]; FIG. 1B legend) was “increases short-term HSC”.
